# Patent publication US20050004167A1, “Branched chain amino acid-dependent aminotransferase inhibitors and their use in the treatment of neurodegenerative diseases” (WARNER-LAMBERT COMPANY LLC, priority 2001, published 2005)
# “And” between values parts separate entries of the source, which are not always exact repeats. Identical values can stand only once.
# Legend:
# rat BCAT cytosolic form = biological target: T1, rat BCAT cytosolic form (Rattus norvegicus, UniProt P54690); test: In vitro coupled enzyme assay (glutamate dehydrogenase, NADH formation), rat BCATc; assay type: biochemical; conditions: recombinant rat BCATc, 37° C., 25 mM phosphate buffer pH 7.8; several values in a cell = repeat determinations; read-out: RrBCATc
# T1 construct: made in house; host or cells: E. coli BL21(DE3)
# T1 sequence (P54690 1-411): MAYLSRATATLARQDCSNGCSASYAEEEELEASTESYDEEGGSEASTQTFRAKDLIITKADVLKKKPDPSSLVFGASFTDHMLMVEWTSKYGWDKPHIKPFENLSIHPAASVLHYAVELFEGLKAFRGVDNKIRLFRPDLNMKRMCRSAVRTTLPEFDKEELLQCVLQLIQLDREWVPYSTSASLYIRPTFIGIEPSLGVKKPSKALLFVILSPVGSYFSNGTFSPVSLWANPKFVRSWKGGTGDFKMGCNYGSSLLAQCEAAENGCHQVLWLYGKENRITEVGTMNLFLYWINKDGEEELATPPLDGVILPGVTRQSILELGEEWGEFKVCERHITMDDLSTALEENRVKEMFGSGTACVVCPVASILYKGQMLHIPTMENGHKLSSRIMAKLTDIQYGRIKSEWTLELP
# Description: In vitro enzyme assay—human Branched Chain Amino Acid Aminotransferase cytosolic form (hBCATc) and mitochondrial form (hBCATm) as well as rat BCAT cytosolic form were assayed at 37° C. in 25 mM phosphate buffer pH 7.8. In addition, 2 mM DTT and 12.5 mM […] were added to the assay mixture. A coupling enzyme assay was used to monitor the production of glutamate. The formation of NADH from NAD+ at […] was followed on a 96-well plate Molecular Devices plate reader.
# The following components were used in this coupled assay: 4 mM ADP, 1 mM NAD+, 750 μM L-Leucine, 500 μM α-ketoglutarate, 10 μM pyridoxal phosphate, 1 unit glutamate dehydrogenase, and 1.25 μg of the appropriate BCAT enzyme. Inhibitions by compounds were assayed by adding various concentrations to this coupled assay procedure as a DMSO stock up to a 5% v/v DMSO/buffer ratio.
# Enzyme Preparation—humanBCATc and ratBCATc were expressed in BL21(DE3) cells. A growing culture of cells was induced with 1 mM IPTG at room temperature overnight. These cells were harvested by centrifugation at 10,000 g for 20 minutes. The supernatant was discarded, and the cells were stored at −80° C. until needed. The protein was purified by the following method. The cell paste was resuspended in extraction buffer (0.1 M phosphate, pH 8.0, with 0.01 M Tris-HCL and 5 mM TCEP and then lysed on a French Press at 1000 psi. The lysate was centrifuged at 10,000 g for 15 minutes, and the pellet was discarded. The supernatant was loaded onto a Hitrap Chelating column previously charged with 0.1 M NiSO4 and washed with 3 to 4 column volumes of extraction buffer. The column was then washed with 0.01 Tris, pH 7.5, 10% glycerol, 150 mM NaCl, 5 mM TCEP for two column volumes. The column was then further washed with two column volumes of 0.1 M phosphate, pH 6.0, 0.01 M Tris, 10% glycerol and 750 mM NaCl. Finally, the column was washed with two column volumes of the same buffer plus 50 mM imidazole. The BCAT enzyme was then eluted with the same buffer but with 350 mM imidazole. The eluant was then dialyzed overnight against 10 mM phosphate buffer pH 8.0, 10% glycerol, and 5 mM TCEP. The dialyzed protein was then loaded onto a Q-sepharose column and eluted using a salt gradient. Active fractions were collected and further purified on a Superose-12 column to yield pure BCAT protein.
# [1] = biological target: T2, human Branched Chain Amino Acid Aminotransferase cytosolic form (hBCATc) (Homo sapiens, UniProt P54687); test: In vitro coupled enzyme assay (glutamate dehydrogenase, NADH formation), human BCATc; assay type: biochemical; conditions: recombinant human BCATc, 37° C., 25 mM phosphate buffer pH 7.8; several values in a cell = repeat determinations; read-out: RhBCATc
# T2 construct: made in house; host or cells: E. coli BL21(DE3)
# T2 sequence (P54687 1-386): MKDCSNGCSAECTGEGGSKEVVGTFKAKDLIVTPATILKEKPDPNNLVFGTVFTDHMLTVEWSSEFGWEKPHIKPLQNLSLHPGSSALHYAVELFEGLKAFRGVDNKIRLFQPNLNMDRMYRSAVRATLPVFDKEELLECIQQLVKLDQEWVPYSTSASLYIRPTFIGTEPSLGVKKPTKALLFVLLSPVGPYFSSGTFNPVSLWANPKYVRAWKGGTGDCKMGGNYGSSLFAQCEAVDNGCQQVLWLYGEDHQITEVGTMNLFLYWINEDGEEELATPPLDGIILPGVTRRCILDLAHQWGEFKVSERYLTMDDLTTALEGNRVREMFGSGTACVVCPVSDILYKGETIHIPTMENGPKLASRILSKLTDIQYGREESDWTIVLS
# Outline: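 At 37 °C in 25 mM phosphate pH 7.8 with 2 mM DTT, 1.25 μg His-tag-purified E. coli-expressed BCAT transaminated 750 μM L-leucine with 500 μM α-ketoglutarate and 10 μM PLP. Glutamate was coupled via glutamate dehydrogenase (1 mM NAD+, 4 mM ADP) to NADH formation at 340 nm. Compounds were added in DMSO up to 5% v/v.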
SMILES,IC50 (rat BCAT cytosolic form),IC50 [1],melting point
"O=C(NNS(=O)(=O)c1ccccc1)c1ccc2[nH]c3c(c2c1)CCCC3 [Example 2, 2,3,4,9-Tetrahydro-1H-carbazole-6-carboxylic acid 2-(phenylsulfonyl)hydrazide]",0.13 µM,2.6 µM,> 250 °C
"COc1cccc2cc(C(=O)NNS(=O)(=O)c3ccccc3)oc12 [Example 5, 7-Methoxy-2-benzofurancarboxylic acid 2-(phenylsulfonyl)hydrazide]",0.86 µM and 0.46 µM and 0.53 µM,5.76 µM and 3 µM,164 to 165 °C
"O=C(NNS(=O)(=O)c1cccc(Cl)c1)c1ccc2oc3ccccc3c2c1 [Example 16, 2-Dibenofurancarboxylic acid 2-[(3-chlorophenyl)sulfonyl]hydrazide]",0.39 µM and 0.2 µM,3 µM and 3.1 µM,208 to 209 °C
"O=C(NNS(=O)(=O)c1ccccc1Cl)c1ccc2oc3ccccc3c2c1 [Example 17, 2-Dibenzofurancarboxylic acid 2-[(2-chlorophenyl)sulfonyl]hydrazide]",1.1 µM and 0.54 µM,11.4 µM,235 to 236 °C
"O=C(NNS(=O)(=O)c1cc(Cl)cc(Cl)c1)c1ccc2oc3ccccc3c2c1 [Example 18, Dibenzofuran-2-carboxylic acid 2-(3,5-dichlorophenylsulfonyl)hydrazide]",0.53 µM and 0.4 µM,7.9 µM,231 to 233 °C
"Cc1c(Cl)cccc1S(=O)(=O)NNC(=O)c1ccc2oc3ccccc3c2c1 [Example 19, Dibenzofuran-2-carboxylic acid 2-(3-chloro-2-methyl-phenylsulfonyl)hydrazide]",0.22 µM,6.7 µM,192 to 194 °C
"CCc1ccc(S(=O)(=O)NNC(=O)c2cc3cccc(OC)c3o2)cc1 [Example 108, 2-Benzofurancarboxylic acid, 7-methoxy-, 2-[(4-ethylphenyl)sulfonyl]hydrazide]",5.6 µM,57 µM,
"COc1cccc(S(=O)(=O)NNC(=O)c2cc3cccc(OC)c3o2)c1 [Example 109, 2-Benzofurancarboxylic acid, 7-methoxy-, 2-[(3-methoxyphenyl)sulfonyl]-hydrazide]",0.46 µM,9.8 µM,
"O=C(NNS(=O)(=O)c1cccc(Cl)c1Cl)c1ccc2oc3ccccc3c2c1 [Example 110, 2-Dibenzofurancarboxylic acid, 2-[(2,3-dichlorophenyl)sulfonyl]hydrazide]",0.72 µM,11.1 µM,
"Cc1cccc(S(=O)(=O)NNC(=O)c2ccc3ccccc3c2)c1 [Example 111, 2-Naphthalenecarboxylic acid, 2-[(3-methylphenyl)sulfonyl]hydrazide]",0.47 µM,0.47 µM and 2.8 µM,
"Cc1ccc(S(=O)(=O)NNC(=O)c2ccc3ccccc3c2)cc1 [Example 112, 2-Naphthalenecarboxylic acid, 2-[(4-methylphenyl)sulfonyl]hydrazide]",6.2 µM,14.6 µM,
O=C(NNS(=O)(=O)c1ccccc1C(F)(F)F)c1ccc2ccccc2c1 [Example 113],0.53 µM,4.1 µM,
O=C(NNS(=O)(=O)c1ccc(C(F)(F)F)cc1)c1ccc2ccccc2c1 [Example 114],26.5 µM,59.7 µM,
"O=C(NNS(=O)(=O)c1ccc(F)c(Cl)c1)c1ccc2ccccc2c1 [Example 115, 2-Naphthalenecarboxylic acid, 2-[(3-chloro-4-fluorophenyl)sulfonyl]hydrazide]",5.2 µM,59.9 µM,
"COc1cccc(S(=O)(=O)NNC(=O)c2ccc3ccccc3c2)c1 [Example 116, 2-Naphthalenecarboxylic acid, 2-[(3-methoxyphenyl)sulfonyl]hydrazide]",1.2 µM,8.2 µM,
"O=C(NNS(=O)(=O)c1cccc(Cl)c1)c1ccc2ccccc2c1 [Example 117, 2-Naphthalenecarboxylic acid, 2-[(3-chlorophenyl)sulfonyl]hydrazide]",0.82 µM,5.7 µM,
"O=C(NNS(=O)(=O)c1ccccc1Cl)c1ccc2ccccc2c1 [Example 118, 2-Naphthalenecarboxylic acid, 2-[(2-chlorophenyl)sulfonyl]hydrazide]",1.8 µM,25 µM,
"O=C(NNS(=O)(=O)c1cccc(F)c1)c1ccc2ccccc2c1 [Example 119, 2-Naphthalenecarboxylic acid, 2-[(3-fluorophenyl)sulfonyl]hydrazide]",2.2 µM,12.7 µM,
"O=C(NNS(=O)(=O)c1cccc(Cl)c1Cl)c1ccc2ccccc2c1 [Example 120, 2-Naphthalenecarboxylic acid, 2-[(2,3-dichlorophenyl)sulfonyl]hydrazide]",2 µM,18.1 µM,
"CCc1ccc(S(=O)(=O)NNC(=O)c2ccc3ccccc3c2)cc1 [Example 121, 2-Naphthalenecarboxylic acid, 2-[(4-ethylphenyl)sulfonyl]hydrazide]",11.6 µM,55 µM,
"CCCCCc1ccc(S(=O)(=O)NNC(=O)c2cnc3ccccc3c2)cc1 [Example 122, 3-Quinolinecarboxylic acid, 2-[(4-pentylphenyl)sulfonyl)hydrazide]",56.7 µM,58 µM,
"O=C(NNS(=O)(=O)c1ccccc1C(F)(F)F)c1cnc2ccccc2c1 [Example 123, 3-Quinolinecarboxylic acid, 2-[[2-(trifluoromethyl)phenyl]sulfonyl]hydrazide]",2.2 µM,11.6 µM,
"Cc1cccc(S(=O)(=O)NNC(=O)c2cnc3ccccc3c2)c1 [Example 125, 3-Quinolinecarboxylic acid, 2-[(3-methylphenyl)sulfonyl]hydrazide]",2.4 µM,18.4 µM,
"O=C(NNS(=O)(=O)c1ccccc1OC(F)(F)F)c1cnc2ccccc2c1 [Example 126, 3-Quinolinecarboxylic acid, 2-[[2-(trifluoromethoxy)phenyl]sulfonyl]hydrazide]",12.5 µM,36.2 µM,
"O=C(NNS(=O)(=O)c1ccccc1)c1cc2ccccc2o1 [Example 146, Benzofuran-2-carboxylic acid 2-(phenylsulfonyl)hydrazide]",2.5 µM,17.8 µM,
"O=C(NNS(=O)(=O)c1ccccc1)c1ccc2[nH]ccc2c1 [Example 153, 1H-Indole-5-carboxylic acid 2-(phenylsulfonyl)hydrazide]",1.9 µM,15.3 µM,
"O=C(NNS(=O)(=O)c1ccccc1)c1cnc2ccccc2c1 [Example 154, Quinoline-3-carboxylic acid 2-(phenylsulfonyl)hydrazide]",3.6 µM,24.2 µM,
